Entries after “also recorded” stand apart in the source; their conditions may differ. No end group written: not given here. *: point of attachment. KMUA = N-κ-maleimidoundecanoic acid-derived modifying group bound to a cysteine residue, O=C(O)CCCCCCCCCCN1C(=O)CC(*)C1=O; BMPA = N-β-maleimidopropionic acid-derived modifying group bound to a cysteine residue; Hexanoyl(6-maleimido) = O=C1C=CC(=O)N1CCCCCC(=O)*
Tested on: AHF (antigen recognized by the monoclonal antibody mAb27)
Test: Hair growth promoting activity in cultured mouse skin tissue: strength of the mAb27 reaction (AHF band) by Western blot
Assay type: cell-based, ICR baby mice
Settings: test oligopeptide 20 μM, skin tissue cultured at 37° C. for 6 days, versus PBS control; FIGS. 4 and 5
Description: The skin tissues of the upper jaw of ICR baby mice with an age of 12 days old were recovered under a stereoscopic microscope. The skin tissues were collected from both the left and right sides of the upper jaw, and the tissues were recovered from the total 5 mice. The skin sections recovered from the 5 mice were divided into the skin sections from the left side (used as a control) and those from the right side (used as a test oligopeptide). Thereafter, 5 skin sections were placed on a single nuclepore membrane (pore size: 8 μm; diameter: 13 mm). The skin sections were observed under a stereoscopic microscope, and the outside thereof was disposed on the front. 500 μl of Dulbecco's MEM/Ham F12 medium containing 1% BSA was added to 2 wells of a 24-well dish. Thereafter, a test oligopeptide solution (solvent: PBS) was added to one well to a final concentration of 20 μM, and only a solvent (PBS) as a control was added at the same amount to the other well. As test oligopeptides, unmodified oligopeptides and modified oligopeptides produced in (1) above were used.
Each of the membranes on which the skin tissues were placed was put on the aforementioned solution filled in the well, and it was then cultured at 37° C. for 6 days. From each membrane, 5 tissue sections were recovered in 100 μl of an SDS sample buffer (0.02 g/ml SDS, 0.2 g/ml glycerol, pH 6.8). The recovered sections were then dissolved therein using an ultrasonic crusher. The control was treated in the same manner. The solution obtained by the aforementioned treatment was electrophoresed (35 mA, 1.5 hours) by SDS-PAGE (acrylamide: 4% to 20%), and it was then transferred to a PVDF membrane. Thereafter, it was incubated in a Tris buffer solution (TBST) containing 5% skimmed milk for 1 hour. Thereafter, the resultant was allowed to react with mAb27 (10 μg/ml in TBST) obtained in Example 2 for 1 hour, and it was then sufficiently washed with TBS. Thereafter, peroxidase-labeled anti-rat IgG (Amersham) was 1,000 times diluted with TBST, and the diluted solution was used as a secondary antibody. The secondary antibody was allowed to react with the above resultant product, and the obtained reaction product was then sufficiently washed. Thereafter, the strength of the reaction of mAb27 was examined using an ECL kit (Amersham).
The term “AHF” shown in FIGS. 4 and 5 represents an antigen recognized by the monoclonal antibody mAb27 (specifically, a protein consisting of 1,439 amino acid residues shown in SEQ ID NO: 11).

Substance | hair growth activity (thickness of AHF band detected with mAb27)
Ser-Ile-Glu-Gln-Ser-Xaa-Ala-Gln-Glu (SIEQSC(Hexanoyl(6-maleimido))AQE) [SEQ ID NO: 9] | particularly strong hair growth activity
Ser-Ile-Glu-Gln-Ser-Xaa-Asp [BMPA] (SIEQSC(BMPA)D) | strong hair growth activity
Ser-Ile-Glu-Gln-Ser-Xaa-Asp [EMCA] (SIEQSC(Hexanoyl(6-maleimido))D) | strong hair growth activity; also recorded: particularly strong
Ser-Ile-Glu-Gln-Ser-Xaa-Asp [KMUA] (SIEQSC(KMUA)D) | strong hair growth activity
Ser-Ile-Glu-Gln-Ser-Xaa-Asp-Gln-Asp-Glu (SIEQSC(Hexanoyl(6-maleimido))DQDE) [SEQ ID NO: 8] | particularly strong hair growth activity
Ser-Ile-Glu-Gln-Ser-Xaa-Glu-Gln-Glu (SIEQSC(Hexanoyl(6-maleimido))EQE) [SEQ ID NO: 10] | strong hair growth activity

From US7560428B2, “Hair growth promoting oligopeptides” (Sumitomo Electric Industries, Ltd., priority 2004, dated 2009)
